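Growth conditions: 96-well plates. Treatment: test compound, 48 hours, 5 concentrations. Analysis: linear interpolation between bracketing concentrations; unreached endpoints set to highest concentration. The concentration for 50% growth inhibition is given as GI50. TGI is the concentration that stops growth completely.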
Legend:
Assay in all cases: growth of human tumour cells (NCI), 48 h
SW-620 colon = test system: SW-620 colon
SK-MEL-2 melanoma = test system: SK-MEL-2 melanoma
HCT-116 colon = test system: HCT-116 colon
IGROV1 ovarian = test system: IGROV1 ovarian
UACC-257 melanoma = test system: UACC-257 melanoma
SF-295 CNS = test system: SF-295 CNS
OVCAR-3 ovarian = test system: OVCAR-3 ovarian
SK-MEL-28 melanoma = test system: SK-MEL-28 melanoma
ACHN renal = test system: ACHN renal
K-562 leukemia = test system: K-562 leukemia

SMILES	TGI (SW-620 colon)	TGI (SK-MEL-2 melanoma)	TGI (HCT-116 colon)	TGI (IGROV1 ovarian)	TGI (UACC-257 melanoma)	TGI (SF-295 CNS)	TGI (OVCAR-3 ovarian)	TGI (SK-MEL-28 melanoma)	TGI (ACHN renal)	GI50 (SW-620 colon)	GI50 (SK-MEL-2 melanoma)	GI50 (HCT-116 colon)	GI50 (IGROV1 ovarian)	GI50 (UACC-257 melanoma)	GI50 (SF-295 CNS)	GI50 (OVCAR-3 ovarian)	GI50 (SK-MEL-28 melanoma)	GI50 (ACHN renal)	GI50 (K-562 leukemia)	TGI (K-562 leukemia)
N#Cc1c(-c2ccccc2)c(-c2ccccc2)cc2c(=O)c3ccc(Cl)cc3[nH]c12	> 100 µM	> 100 µM	> 100 µM	> 100 µM	> 100 µM	> 100 µM	> 100 µM	> 100 µM	> 100 µM	–	–	–	–	–	–	–	–	–	–	–
C[C@]12CCc3nc(Nc4ccc(O)cc4)sc3C1=CC[C@@H]1[C@@H]2CC[C@]2(C)/C(=N/NC(N)=S)CC[C@@H]12	3.26 µM	3.52 µM	2.57 µM	3 µM	5.61 µM	3.48 µM	3.12 µM	3.4 µM	2.99 µM	1.29 µM	1.69 µM	1.15 µM	1.45 µM	2.04 µM	1.57 µM	1.56 µM	1.51 µM	1.59 µM	–	–
Cc1ccccc1Nc1cc(O)c2c(=O)cc(-c3ccccc3)oc2c1	> 100 µM	> 100 µM	> 100 µM	> 100 µM	–	> 100 µM	4.91 µM	–	> 100 µM	0.734 µM	2.44 µM	3.36 µM	3.2 µM	–	2.36 µM	1.72 µM	–	4.25 µM	0.469 µM	> 100 µM
CC(C)(C)O/N=C/c1cc(NC(=S)c2ccccc2)ccc1Cl	45.3 µM	39.6 µM	29.4 µM	27.1 µM	31 µM	51.3 µM	35.3 µM	32.5 µM	32.7 µM	–	–	–	–	–	–	–	–	–	–	–
COc1cccc(-c2cc(=O)c3cc(N4CCN(C)CC4)ccc3[nH]2)c1	> 100 µM	> 100 µM	> 100 µM	> 100 µM	–	–	–	> 100 µM	> 100 µM	0.755 µM	3.16 µM	0.92 µM	2.86 µM	–	8.34 µM	–	3.99 µM	3.74 µM	0.492 µM	6.22 µM
COc1ccc(/C=C/C(=O)c2c(-c3ccccc3)nn(C)c(=O)c2N2CCCCC2)cc1	> 100 µM	–	23.6 µM	77.9 µM	–	44.4 µM	–	30.2 µM	> 100 µM	–	–	–	–	–	–	–	–	–	–	63 µM
O=C1c2cccc3c(N4CCOCC4)ccc(c23)C(=O)N1CCN1CCN(CCCCCN2CCN(CCN3C(=O)c4cccc5c(N6CCOCC6)ccc(c45)C3=O)CC2)CC1	> 100 µM	–	> 100 µM	–	> 100 µM	> 100 µM	> 100 µM	> 100 µM	> 100 µM	70.8 µM	–	33.8 µM	–	74 µM	72 µM	84.5 µM	> 100 µM	62.2 µM	36 µM	> 100 µM
N=C(N)n1cc(/C=N/N=C(N)N)cn1	> 100 µM	–	> 100 µM	> 100 µM	> 100 µM	> 100 µM	> 100 µM	> 100 µM	> 100 µM	–	–	–	–	–	–	–	–	–	–	> 100 µM
O=C(Nc1nc2ccc(S(=O)(=O)Nc3ccc(C4(C(F)(F)F)CC4)cc3)cc2[nH]1)c1cnccn1	15.3 µM	18.5 µM	15.9 µM	18.5 µM	23.8 µM	10.3 µM	10.1 µM	19.2 µM	18.2 µM	1.71 µM	3.03 µM	1.66 µM	1.9 µM	10.6 µM	0.506 µM	0.417 µM	4.58 µM	4.39 µM	–	–
COc1ccc(-c2cnc(-c3ccncc3-c3cccc(OC)c3)o2)cc1	19.3 µM	15.2 µM	11.8 µM	18.4 µM	15.8 µM	13.8 µM	–	17.8 µM	14.7 µM	0.0383 µM	0.0397 µM	0.0375 µM	0.0754 µM	0.403 µM	0.0294 µM	–	0.0639 µM	0.138 µM	0.0288 µM	12.8 µM
CCOC(=O)C[C@@]12CCCN[C@]1(C)CCc1ccccc12	> 100 µM	> 100 µM	> 100 µM	> 100 µM	–	> 100 µM	> 100 µM	> 100 µM	> 100 µM	–	–	–	–	–	–	–	–	–	–	> 100 µM
Cc1ccc(-n2c3nc(=O)n(C)c(=O)c-3nc3ccccc32)c(C)c1	19.1 µM	27.5 µM	24 µM	36.4 µM	12.6 µM	22.9 µM	6.33 µM	–	15.8 µM	–	–	–	–	–	–	–	–	–	–	40.6 µM
CC(C)(C)C1=NO[C@H]2[C@@H](NC(=O)c3ccccc3)CC[C@@H]12	> 100 µM	–	> 100 µM	> 100 µM	> 100 µM	> 100 µM	> 100 µM	> 100 µM	> 100 µM	–	–	–	–	–	–	–	–	–	–	> 100 µM
CS(=O)(=O)OCCN1CCN(C(=O)c2ccc(Cl)c3c(Nc4ccc(S(=O)(=O)N=C(N)N)cc4)c4ccccc4nc23)CC1	–	> 100 µM	> 100 µM	> 100 µM	> 100 µM	> 100 µM	> 100 µM	> 100 µM	> 100 µM	–	–	–	–	–	–	–	–	–	–	> 100 µM
C[n+]1cn(CC(=O)c2ccccc2)c(C(N)=O)c1N	29.4 µM	> 100 µM	74.1 µM	> 100 µM	> 100 µM	> 100 µM	> 100 µM	> 100 µM	> 100 µM	–	–	–	–	–	–	–	–	–	–	–
O=C1C2C(C(=O)N1Cc1ccccc1)N(Cc1ccccc1)C(=O)N2Cc1ccccc1 (stereo not given)	> 100 µM	–	> 100 µM	> 100 µM	> 100 µM	> 100 µM	> 100 µM	> 100 µM	> 100 µM	–	–	–	–	–	–	–	–	–	–	> 100 µM
CCN(CC)CCCC(Nc1c2ccc(Cl)cc2nc2ccc(OC)cc12)c1ccc(Cl)cc1 (stereo not given)	2.99 µM	3.63 µM	–	–	3.22 µM	2.77 µM	2.75 µM	2.9 µM	2.81 µM	1.37 µM	1.89 µM	–	–	1.68 µM	1.3 µM	1.22 µM	1.34 µM	1.38 µM	0.221 µM	0.432 µM
